pKi: −log10 of the molar value. Calls of active or inactive are those of the source. The calls are words filed in the database; no cut-off is given here.

The target of one experiment is Protease (Human immunodeficiency virus 1, UniProt Q9YQ12). The experiment is described as follows: (§1) Inhibition of Human immunodeficiency virus 1 protease activity after 60 mins by HPLC analysis.
Chain of Protease (Q9YQ12 whole entry): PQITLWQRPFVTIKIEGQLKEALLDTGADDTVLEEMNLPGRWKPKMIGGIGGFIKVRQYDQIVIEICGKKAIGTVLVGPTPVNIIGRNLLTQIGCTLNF
With `CCOC(=O)NC(Cc1ccccc1)C(O)CN1C[C@@H](C)Cc2ccccc2S1(=O)=O` (single isomer, unassigned), the pKi is 7.47.
Molecule `C[C@H]1Cc2ccc(C(F)(F)F)cc2S(=O)(=O)N(C[C@@H](O)[C@H](Cc2ccccc2)NC(=O)OC(C)(C)C)C1` had a pKi of 7.00.
For `C[C@H]1Cc2ccccc2S(=O)(=O)N(CC(O)C(Cc2ccccc2)NC(=O)OC(C)(C)C)C1` (single isomer, unassigned), the pKi is 7.54.
Still for that read-out and setting: the value for `C[C@H]1Cc2cc(F)ccc2S(=O)(=O)N(CC(O)C(Cc2ccccc2)NC(=O)[C@@H]2CN(c3ccccc3)C(=O)O2)C1` (single isomer, unassigned) was 7.52; that for `CC(C)(C)OC(=O)N[C@@H](Cc1ccccc1)[C@H](O)CN1CCCc2ccccc2S1(=O)=O` was 6.33; that for `C[C@H]1Cc2cc(C(F)(F)F)ccc2S(=O)(=O)N(C[C@@H](O)[C@H](Cc2ccccc2)NC(=O)OC(C)(C)C)C1` was 6.73.
Still for that read-out and setting: as for `C[C@H]1Cc2ccccc2S(=O)(=O)N(CC(O)C(Cc2ccccc2)NC(=O)Oc2ccccc2)C1` (single isomer, unassigned), the figure is 6.46; as for `COc1ccc2c(c1)C[C@H](C)CN(C[C@@H](O)[C@H](Cc1ccccc1)NC(=O)OC(C)(C)C)S2(=O)=O`, 7.72.
Still for that read-out and setting: as for `C=CCOC(=O)N[C@@H](Cc1ccccc1)[C@H](O)CN1C[C@@H](C)Cc2ccccc2S1(=O)=O`, the figure is 7.57.
On to `C[C@@H]1Cc2ccccc2S(=O)(=O)N(CC(O)C(Cc2ccccc2)NC(=O)OC(C)(C)C)C1` (single isomer, unassigned), for which the pKi was 6.00.

Another experiment deals with Protease (Human immunodeficiency virus 1) (UniProt Q9YQ12). The experiment is described as §1.
Chain of Protease (Human immunodeficiency virus 1) (Q9YQ12 as listed by the source): as the sequence (Q9YQ12 whole entry) above
`O=C1N[C@@H](Cc2ccccc2)[C@@H](CN2CCCc3ccccc3S2(=O)=O)O1`: the inhibition entry was “inactive”.
